± gives the expanded uncertainty stated by the source.
Conditions: Liquid

vapor or sublimation pressure (303.04 K) [kPa]	vapor or sublimation pressure (303.05 K) [kPa]	vapor or sublimation pressure (309.28 K) [kPa]	vapor or sublimation pressure (313.11 K) [kPa]	vapor or sublimation pressure (316.36 K) [kPa]	vapor or sublimation pressure (318.1 K) [kPa]	Structure (SMILES)	vapor or sublimation pressure (305.11 K) [kPa]	vapor or sublimation pressure (295.82 K) [kPa]	vapor or sublimation pressure (303.17 K) [kPa]	vapor or sublimation pressure (313.05 K) [kPa]	vapor or sublimation pressure (318.04 K) [kPa]	vapor or sublimation pressure (323.24 K) [kPa]	vapor or sublimation pressure (327.95 K) [kPa]	vapor or sublimation pressure (293.17 K) [kPa]	vapor or sublimation pressure (302.95 K) [kPa]	vapor or sublimation pressure (309.84 K) [kPa]	vapor or sublimation pressure (313.03 K) [kPa]	vapor or sublimation pressure (319.81 K) [kPa]
26.67 ± 0.08	26.68 ± 0.08	34.5 ± 0.09	40.15 ± 0.09	45.51 ± 0.1	48.62 ± 0.1	C1CCOC1 [tetrahydrofuran]	29.09 ± 0.08	–	–	–	–	–	–	–	–	–	–	–
–	–	–	–	–	–	F[C@H]([C@@H](F)C(F)(F)C(F)(F)F)C(F)(F)F (relative stereo) [(R*,R*)-1,1,1,2,2,3,4,5,5,5-decafluoropentane]	40.56 ± 0.09	26.69 ± 0.08	37.25 ± 0.09	56.54 ± 0.11	68.94 ± 0.12	84.1 ± 0.13	99.96 ± 0.14	–	–	–	–	–
–	–	–	–	–	–	F[C@H]([C@H](F)C(F)(F)F)C(F)(F)C(F)(F)F (relative stereo) [(R*,S*)-1,1,1,2,2,3,4,5,5,5-decafluoropentane]	–	–	–	–	–	–	–	34.49 ± 0.1	52.41 ± 0.11	68.93 ± 0.13	77.9 ± 0.15	99.95 ± 0.17

Source: the NIST ThermoML archive (doi:10.1021/je034157t)
